In ChEMBL document CHEMBL1125846, “Reevaluating equilibrium and kinetic binding parameters for lipophilic drugs based on a structural model for drug interaction with biological membranes” (J Med Chem, 1991):

Legend:
[1] = Partition coefficient of compound in to octanol/buffer; format: physicochemical; settings: octanol/water
[2] = sarcoplasmic reticulum membrane
Description: Partition coefficient of compound in to biological membranes

Rattus norvegicus [3] = organism: Rattus norvegicus; test: Equilibrium dissociation constant based on aqueous concentration in rat smooth muscle; format: ADME, Muscle tissue
Rattus norvegicus [4] = organism: Rattus norvegicus; test: Equilibrium dissociation constant based on membrane concentration in rat smooth muscle; format: ADME, Muscle tissue
Rattus norvegicus [5] = organism: Rattus norvegicus; test: Equilibrium dissociation constant based on membrane concentration in rat cardiac muscle

Row | SMILES | Partition coefficient [1] | Partition coefficient [2] | Kd (Rattus norvegicus [5]) | Kd (Rattus norvegicus [3]) | Kd (Rattus norvegicus [4])
1 | CCOC(=O)C1=C(COCCN)NC(C)=C(C(=O)OC)C1c1ccccc1Cl (stereo not drawn) [AMLODIPINE] | 30 | 19000 |  | 1.2 nM | 23000 nM
2 | CC(C)NCC(O)COc1cccc2ccccc12 (stereo not drawn) [PROPRANOLOL] | 18 | 1200 |  |  | 
3 | CN/C(=N/CCSCc1nc[nH]c1C)NC#N [CIMETIDINE] | 1 |  |  |  | 
4 | COCCOC(=O)C1=C(C)NC(C)=C(C(=O)OC(C)C)C1c1cccc([N+](=O)[O-])c1 (stereo not drawn) [NIMODIPINE] | 730 | 6300 |  | 0.11 nM | 690 nM
5 | COC(=O)C1=C(C)NC(C)=C(C(=O)OC)C1c1ccccc1[N+](=O)[O-] [NIFEDIPINE] |  |  |  | 0.41 nM | 23000 nM

Continued, in another order:

Row | Partition coefficient [1] | Partition coefficient [2] | Kd (Rattus norvegicus [5]) | SMILES | Kd (Rattus norvegicus [3]) | Kd (Rattus norvegicus [4])
6 | 40 | 13000 | 1800 nM | COC(=O)C1=C(C)NC(C)=C(C(=O)OCC(C)C)C1c1ccccc1[N+](=O)[O-] (stereo not drawn) [NISOLDIPINE] | 0.14 nM | 
7 | 0.7 |  |  | CC(C)(C)NC[C@H](O)COc1nsnc1N1CCOCC1 [TIMOLOL] |  | 
